# Results taken from US20180250313A1, “COMPOUNDS AND FORMULATIONS FOR TREATING OPHTHALMIC DISEASES” (VIEWPOINT THERAPEUTICS, INC., priority 2015, published 2018).
# How the values were obtained:
# [1] = Ex vivo human tissue pharmacokinetic experiment: entire human globes soaked six days, C29 exposure in areas of the eye; type: in vitro ADME; conditions: for Calculated Concentration: globe soaked in 1 mM API in 8% cyclodextrin in PBS, six days, room temperature; for Dilution Corrected Concentration: six days soak, 1 mM API in 8% cyclodextrin in PBS
# Experimental: Pharmacokinetic experiments were performed on entire human globes (eye without appendages) to determine exposure of the compound (C29) in various areas of the eye. Each globe was obtained less than 24 hours after collection and then soaked in either a solution of 1 mM API in 8% cyclodextrin in PBS or only PBS for six days at room temperature.
# [2] = Kinetics of compound accumulation in the lens of entire human globes soaked one to four days; type: in vitro ADME; conditions: human globes in 1 mM API in 8% cyclodextrin in PBS, room temperature
# Experimental: In a similar experiment, entire human globes were used to determine the kinetics of compound accumulation in the lens. A total of eight globes were soaked in a solution of 1 mM API in 8% cyclodextrin in PBS for one, two, three, or four days at room temperature.
# [3] = Ocular distribution of Compound IIIC after intravitreal administration (LC-MS/MS of ocular tissues); type: in vivo, New Zealand White rabbits; conditions: for Levels in the lens: intravitreal
# Excerpt: New Zealand White rabbits obtained from the Western Oregon Rabbit Company were used for this study. 12 animals were used in this study, and all animals used were male. Prior to treatment initiation, selection of animals for the study was based on a visual appraisal of good clinical condition and body weight specifications. Animals selected for use in this study were as uniform in age and weight as possible. Animal's weights ranged from about 2.58 to about 3.22 kilograms at the start of the experiment. All animals were healthy at the time of animal selection. All animals were identified by ear tag and by cage cards listing the animal identification number, study number, group, and sex of the animal.
# The compound of formula IIIC was tested at two different concentrations, 3% weight/volume and 0.5% weight/volume. For both concentrations the compound was formulated as an aqueous suspension. Details of the formulations are as follows: Formulation 1: 3% of ˜500 nm nanoparticles of a compound of formula IIIC in 0.6% tromethamine as buffer, 0.1% polysorbate-80 to aide in dispersion of the API, pH adjusted with boric acid to 7.4, and osmolarity adjusted with mannitol to 293 mOsm. Formulation 2: 0.5% of ˜500 nm nanoparticles of a compound of formula IIIC in 0.6% tromethamine as buffer, 0.1% polysorbate-80 to aide in dispersion of the API, pH adjusted with boric acid to 7.4, and osmolarity adjusted with mannitol to 293 mOsm.
# Animals were assigned to one of two experimental groups based on body weight, such that each group contained 6 animals. Animals in group 1 were administered 25 μL for formulation 1 by intravitreous injection, while animals in group 2 were administered 25 μL of formulation 2. Within each group animals were further divided into 3 time points, 2 hours, 1 day and 7 days. Each time point consisted of two animals. Administration of formulations 1 and 2 occurred at time 0.
# For intravitreal injections animals were anesthetized with an intramuscular injection of ketamine hydrochloride (12 to 20 mg/kg) and xylazine (5 mg/kg). One to two drops of topical proparacaine hydrochloride anesthetic (0.5%) were applied to the animal's eyes prior to the surgical procedure. The eyes were cleaned with Betadine and then rinsed with balanced salt solution (BSS). Test article was drawn up directly into a 0.3 mL insulin syringe with a 31G 5/16 inch needle, and injections were made 4 to 5 mm away from the limbus. Once the needle was inserted, 25 μL of the test article was injected. The needle was removed and the eye rinsed with BSS. […] Animals were monitored during recovery.
# Animals were euthanized at the designated time points by an intravenous injection of pentobarbital (150 mg/kg). […] The concentration of compound IIIC in each collected sample was measured by LC-MS/MS. […]
smiles,measurement,setting,value
"C[C@H](CCCC(C)(C)O)[C@H]1CC[C@H]2[C@@H]3CC=C4C[C@@H](O)CC[C@]4(C)[C@H]3CC[C@]12C [Compound C29, 25-hydroxycholesterol]",Calculated Concentration,[1]; Human Cornea,2120 nM
same,Dilution Corrected Concentration,[1]; Human Cornea,4.24 µM
same,Calculated Concentration,[1]; Human Iris,1330 nM
same,Dilution Corrected Concentration,[1]; Human Iris,2.66 µM
same,Calculated Concentration,[1]; Human Lens,7620 nM
same,Dilution Corrected Concentration,[1]; Human Lens,15.24 µM
same,Calculated Concentration,[1]; Human Retina,4310 nM
same,Dilution Corrected Concentration,[1]; Human Retina,8.62 µM
same,Calculated Concentration,[1]; Human Vitreous Humor,2410 nM
same,Dilution Corrected Concentration,[1]; Human Vitreous Humor,4.82 µM
same,Average Concentration in Lens,[2]; 1 day of incubation,14.5 µM
same,Average Concentration in Lens,[2]; 2 days of incubation,20.7 µM
same,Average Concentration in Lens,[2]; 3 days of incubation,39.8 µM
same,Average Concentration in Lens,[2]; 4 days of incubation,37.8 µM
same,"levels in the vitreous humor, course over time","[3]; intravitreal 25 μL, 3% and 0.5% formulation, 2 hr, 24 hr, 168 hr",decreased steadily at later time points
same,"levels in the vitreous humor, dependence on dose","[3]; intravitreal 25 μL, 3% versus 0.5% formulation, 2 hr, 24 hr, 168 hr",dose-dependent
same,Levels in the lens,[3]; earlier time points,undetectable
same,Levels in the lens,"[3]; higher-dosed group, last time point (7 days after dosing)",consistently exhibiting detectable levels
